Reference: US20240400547A1, “2,6-PIPERIDINEDIONE COMPOUND AND APPLICATION THEREOF” (MEDSHINE DISCOVERY INC., priority 2021, published 2024)
Structures can show the parent of a compound that is named as a salt. Where two headings read alike, the source gives them in different places.

Legend:
[1] = Pharmacokinetic evaluation in mice; format: in vivo, C57BL/6N or CD-1 male mice; settings: for Vd / half-life / clearance / bioavailability: male, plasma; for Vd: read-out: Apparent volume of distribution; for half-life: read-out: Elimination half-life (converted); for clearance: read-out: Plasma clearance rate; for bioavailability: po, read-out: Bioavailability F
Excerpt: In this study, C57BL/6N or CD-1 male mice were selected as test animals, and LC/MS/MS method was used to quantify plasma concentrations of the test compound intravenously injected or gavage to mice at different time points, so as to evaluate the pharmacokinetic profile of the compounds of the present disclosure in mice.
C57BL/6N mice (male, 20 to 30 g, 7 to 10 weeks old, Beijing VitalRiver) or CD-1 mice (male, 20 to 35 g, 7 to 10 weeks old, Beijing VitalRiver).
• The test compounds, either as clear or suspension solutions, were administered intravenously through the tail vein to C57BL/6N mice or CD-1 mice (either fasted overnight or fed) (vehicle: 10% DMSO/10% solutol/80% H2O or 5% DMSO/10% solutol/85% H2O), or intragastrically administered to C57BL/6N mice or CD-1 mice (either fasted overnight or fed). For intravenous injection, blood 50 μL was collected via the cheek vein puncture at 0 h (pre-administration), 0.083, 0.25, 0.5, 1, 2, 4, 6, 8, and 24 h after administration, and placed in an anticoagulant tube added with heparin sodium. The mixture was thoroughly vortexed and mixed, and centrifuged at 6000 g for 3 minutes at 2-8° C. For oral administration, blood was collected via the cheek vein puncture at 0 h (pre-administration), 0.083, 0.25, 0.5, 1, 2, 4, 6, 8, and 24 h after administration, and placed in an anticoagulant tube added with heparin sodium. The mixture was thoroughly vortexed and mixed, and centrifuged at 6000 g for 3 minutes at 2-8° C. Plasma concentrations were determined by LC-MS/MS method, and relevant pharmacokinetic parameters were calculated using Phoenix WinNonlin8.2.0 pharmacokinetic software with non-compartmental model linear-log trapezoidal method.
• The test compounds, as clear solutions, were administered intravenously through the tail vein to CD-1 mice (fasted overnight) (vehicle: 10% DMSO/10% solutol/80% H2O or 5% DMSO/10% solutol/85% H2O), or intragastrically administered to CD-1 mice (fasted overnight). For intravenous injection, blood was collected via the saphenous vein puncture at 0 h (pre-administration), 0.083, 0.25, 0.5, 1, 2, 4, 8, and 24 h after administration, and placed in a EDTA-K2 anticoagulant tube. The mixture was thoroughly vortexed and mixed, and centrifuged at 3200 g for 10 minutes at 4° C. to obtain plasma. For oral administration, blood was collected via the saphenous vein puncture at 0 h (pre-administration), 0.083, 0.25, 0.5, 1, 2, 4, 8, and 24 h after administration, and placed in a EDTA-K2 anticoagulant tube. The mixture was thoroughly vortexed and mixed, and centrifuged at 3200 g for 10 minutes at 4° C. to obtain plasma. Plasma concentrations were determined by LC-MS/MS method, and relevant pharmacokinetic parameters were calculated using Phoenix WinNonlin 6.3 pharmacokinetic software with non-compartmental model linear-log trapezoidal method.

SU-DHL-2 = experiment: Antiproliferative effect in lymphoma cell line SU-DHL-2 (CellTiter-Glo); format: cell-based, human; settings: SU-DHL-2, 4 days; for IC50: Homo sapiens, 96 h
Protocol: Experimental purpose: The experiment aims to evaluate the inhibitory effects of the test compounds on cell proliferation in the lymphoma cell line SU-DHL-2.
The tumor cell lines were cultured in a 37° C., 5% CO2 incubator under the above culture conditions. Regular passage, and cells in logarithmic growth phase were taken for plating.
• (1) Cells were stained with trypan blue and viable cells were counted. • (2) The cell concentration was adjusted to an appropriate concentration.
• (3) 50 μL of cell suspension per well was added to the culture plate as shown in the figure above. • (4) The culture plate was cultured overnight in a 37° C., 5% CO2 incubator with 100% relative humidity.
Compounds were added using the Echo655 instrument. The volume of compound added was 50 nL, with a final DMSO concentration of 0.1%. The culture plate was centrifuged at 1000 rpm for 1 minute, then incubated for 4 days in an incubator at 37° C., 5% CO2, and with 100% relative humidity.
The following steps were performed according to the instructions of Promega CellTiter-Glo luminescent cell viability assay kit (Promega-G7573). • (1) CellTiter-Glo buffer was melted and brought to room temperature. • (2) CellTiter-Glo substrate was brought to room temperature. • (3) CellTiter-Glo working solution was prepared by adding CellTiter-Glo buffer to a vial of CellTiter-Glo substrate to dissolve the substrate; • (4) The mixture was slowly vortexed and shaken to be fully dissolved. • (5) The cell culture plate was taken out and left for 30 minutes to equilibrate to room temperature. • (6) 25 μL of CellTiter-Glo working solution was added per well (equal to half the volume of cell culture medium per well). The cell plate was wrapped in aluminum foil to be protected from light. • (7) The culture plate was shaken on an orbital shaker for 2 minutes to induce cell lysis. • (8) The culture plate was left at room temperature for 10 minutes to stabilize the luminescent signal. • (9) The luminescent signal was detected on a 2104 EnVision plate reader.
The inhibition rate (IR) of the test compound was calculated using the following formula: IR (%)=(1−(RLU compound/RLU blank control)/(RLU vehicle control−RLU blank control)×100%. The inhibition rates of compounds at different concentrations were calculated in Excel, and then GraphPad Prism software was used to plot inhibition curves and calculate relevant parameters, including minimum inhibition rate, maximum inhibition rate, and IC50.

[2] = intragastric administration 10 mg/kg, experimental operation B, fasted overnight
[3] = intravenous injection 2 mg/kg, experimental operation B, fasted overnight
[4] = CD-1, mouse, intravenous injection 2 mg/kg, experimental operation B, fasted overnight
[5] = CD-1, mouse, intragastric administration 10 mg/kg, experimental operation B, fasted overnight
[6] = intragastric administration 10 mg/kg, experimental operation A, fed
[7] = intragastric administration 10 mg/kg, experimental operation A, fasted overnight
[8] = mouse, intravenous injection 2 mg/kg, experimental operation A, fasted overnight

Compound	Area under drug-time curve (0-inf) [1, 2] [µM·h]	Peak concentration [1, 2] [µM]	Time to peak concentration [1, 2] [h]	Area under drug-time curve (0-inf) [1, 3] [µM·h]	Vd [1, 4] [L/kg]	half-life [1, 4] [h]	clearance [1, 4] [mL/min/kg]	bioavailability [1, 5] [%]	IC50 (SU-DHL-2) [nM]	Maximum inhibition rate (SU-DHL-2) [%]	also measured
CC(C)(O)c1cc2nc(C3CCC(CN4CCN(CC(=O)Nc5cccc6c5ccc5onc(C7CCC(=O)NC7=O)c56)CC4)CC3)sc2cc1NC(=O)c1cccc(C(F)(F)F)n1 (stereo not drawn) [Formate of WX017]	5.07	0.65	4.00	3.17	2.59	2.32	12.2	31.9	–	–	–
CC(C)(O)c1cc2nc([C@H]3CC[C@H](CN4CCN(CC(=O)Nc5ccc6c(C7CCC(=O)NC7=O)noc6c5)CC4)CC3)sc2cc1NC(=O)c1cccc(C(F)(F)F)n1 (stereo partly drawn) [Formate of WX026]	–	–	–	–	–	–	–	–	0.91	100.08	–
O=C1CCC(c2coc3cc(NC(=O)CN4CCN(C[C@H]5CC[C@H](N6CC(NC(=O)c7coc(-c8ccnc(NCC9CC9)c8)n7)C(C(F)F)N6)CC5)CC4)ccc23)C(=O)N1 (stereo partly drawn) [Hydrochloride of WX002]	2.00	0.64	1.00	–	–	–	–	–	–	–	–
O=C1CCC(c2noc3ccc4c(NC(=O)CN5CCN(C[C@H]6CC[C@H](n7cc(NC(=O)c8coc(-c9ccnc(NCC%10CC%10)c9)n8)c(C(F)F)n7)CC6)CC5)cccc4c23)C(=O)N1 (stereo partly drawn) [Hydrochloride of WX014]	–	–	–	–	–	–	–	–	28.7	93.55	Area under drug-time curve (0-inf) [1, 6]: 4.47 µM·h; Peak concentration [1, 6]: 0.54 µM; Time to peak concentration [1, 6]: 1.00 h; Area under drug-time curve (0-inf) ([1]; intravenous injection 2 mg/kg, experimental operation A, fed): 5.40 µM·h
O=C1CCC(c2noc3ccc4c(NC(=O)C(F)(F)C5CCN(CC6CCC(n7cc(NC(=O)c8coc(-c9ccnc(NCC%10CC%10)c9)n8)c(C(F)F)n7)CC6)CC5)cccc4c23)C(=O)N1 (stereo not drawn) [Hydrochloride of WX018]	1.01	0.09	6.00	3.06	4.39	5.22	11.8	6.59	11.7	100.27	–
O=C1CCC(c2coc3ccc4c(NC(=O)CN5CCN(C[C@H]6CC[C@H](n7cc(NC(=O)c8coc(-c9ccnc(NCC%10CC%10)c9)n8)c(C(F)F)n7)CC6)CC5)cccc4c23)C(=O)N1 (stereo partly drawn) [Trifluoroacetate of WX011]	–	–	–	–	–	–	–	–	25.2	99.89	Area under drug-time curve (0-inf) [1, 7]: 5.00 µM·h; Peak concentration [1, 7]: 0.45 µM; Time to peak concentration [1, 7]: 1.67 h; Area under drug-time curve (0-inf) ([1]; intravenous injection 2 mg/kg, experimental operation A, fasted overnight): 15.31 µM·h; Vd [1, 8]: 1.8 L/kg; half-life [1, 8]: 9.45 h; clearance [1, 8]: 2.76 mL/min/kg; bioavailability ([1]; mouse, intragastric administration 10 mg/kg, experimental operation A, fasted overnight): 6.53%
